Reference: US20240317762A1, “PHTHALAZINONE-BASED PARP-1 INHIBITORS” (Oregon Health & Science University, priority 2021, published 2024)
Where “and” joins values, the source holds several entries; their conditions need not be identical. Equal values may be shown once.

Columns and labels:
HEK 293T cells [1] = assay: cell proliferation (MTT) assay; type: cell-based, human
Procedure: HEK 293T or HEK 293 PARP-1 KO cells were seeded in a 96 well plate at 1000-2000 cells per well. Following an overnight incubation, MTT reagent, 3-(4,5-dimethylthiazol-2-yl)-2,5-diphenyltetrazolium bromide, or a dosage curve of indicated inhibitor was added to each well in quadruplicate. Following a 3-hour incubation at 37° C., wells containing MTT reagent, were aspirated and lysed with 100 μl DMSO. These wells acting as a no growth control were collected, saved @ −20° C., and replaced with 100 μl water. The plate was placed back into the incubator for a total of 72 hours of inhibitor treatment prior to MTT reagent being added for a final time. Following a 3 hour incubation with the reagent, wells were aspirated, and 100 μl DMSO were added to each well, while the no growth control sample was added back to the plate. Absorbance was read on a SpectraMaxi3 plate reader (Molecular Devices). Percent growth was calculated for analysis. Statistical significance was assigned using individual t-tests between conditions for each inhibitor dosage.
(§1) Error bars represent SEM. […] Error bars represent SEM. […] Error bars represent SEM.

HEK 293T cells [2] = assay: neutral comet assay; type: cell-based, human; conditions: 1 μM overnight, compared to bleomycin
Excerpt: Cells were washed with 1×PBS, trypsinized, resuspended in a 1000,000 cells/ml 1×PBS solution, and mixed with molten agarose 1:2. The agarose mixture was placed onto CometSlides and the comet assay was completed following the manufacturer instructions (Trevigen, 4250-050-K). DNA was stained using SYBR Green and slides were imaged on a Zeiss ApoTome2 on Axiolmager using a 10× objective (>100 cells/condition).

HEK 293T cells [3] = assay: analysis of cell cycle (DAPI, flow cytometry)
Procedure: After the indicated treatments, cells were washed twice with 1× PBS, trypsinized off of the plate, and washed an additional 2 times with 1×PBS. Cells were then permeabilized using 70% cold ethanol while vortexing before incubating for 30 min at 4° C. Cells were then washed three times with 1×PBS and counted using a hemocytometer to create a final pellet of 1×10^6 cells in for each inhibitor condition. 500 μl of DAPI solution (1 μg/ml DAPI, 0.1% Triton X-100 in PBS) was added to each cell pellet and incubated on ice for 30 min before being analyzed by flow cytometry using a BD Canto II. All data was analyzed on FlowJo software, gating for 20,000 singlet events. Manual cell cycle gates were set onto the DMSO control data using Watson modeling as reference. These gates were applied to all treatment conditions to obtain quantitative analysis.
Error bars represent SEM. […] Caspase-Glo 3/7 reagent was added to each well and luminescence was read after 30 minutes. […] Error bars represent SEM. […] Cell cycle was analyzed by flow cytometry (20,000 singlet events) and cell cycle statistics were calculated in FlowJo software against DMSO Watson modeling (n=3). FIG. 3F) DNA synthesis was measured using EdU incorporation. […] EdU incorporation was labelled using TAMRA azide click-chemistry and imaged at 20×. Mean intensity of TAMRA signal within DAPI masks analyzed using Zen software (n>3900 cells over 2 replicates). Values are normalized to the average DMSO control within each replicate. Error bars represent SEM. Statistical significance calculated via one-way ANOVA with Tukey's multiple comparisons test (p<0.05).

HEK 293T cells [4] = assay: DNA synthesis assay (EdU incorporation); type: cell-based, human; conditions: 1 μM, 18 hours, then 10 μM EdU 1.5 hours
Procedure: HEK 293T cells were seeded onto poly-d-lysine treated glass coverslips. […] After incubation, cells were treated with 10 μM EdU (5-ethynyl-2′-deoxyuridine) for 1.5 hours and subsequently fixed with 4% Sucrose/4% Paraformaldehyde in PBS for 15 minutes at RT. Cells were washed 2× with 3% BSA in PBS and permeabilized with 0.3% Triton X-100 in PBS for 20 minutes at RT. After two additional 3% BSA in PBS washes, coverslips were incubated with 500 μl Click-iT reaction cocktail [1× Click-iT reaction buffer, 2 mM CuSO4, 5 μM TAMRA Azide, Reaction buffer additive] for 30 minutes at room temperature (RT) protected from the light. Cells were washed once more with 3% BSA in PBS and twice more with 1×PBS before being mounted using ProLong Gold antifade reagent with DAPI (Invitrogen). All immunofluorescence images were taken on a Zeiss ApoTome2 on Axiolmager and analyzed using Zeiss software. Mean intensity of the TAMRA signal was measured after imposing DAPI masks over the nucleus of each cell. All cells within a 20× image, was analyzed (˜3000 cells/condition).
as §1

D770A PARP-1 = D770A PARP-1 (Homo sapiens, UniProt P09874, D770A); assay: fluorescence polarization DNA competition and affinity assays, D770A mutant; type: binding
Sequence of D770A PARP-1 (P09874 whole entry D770A, the tested form may be a part): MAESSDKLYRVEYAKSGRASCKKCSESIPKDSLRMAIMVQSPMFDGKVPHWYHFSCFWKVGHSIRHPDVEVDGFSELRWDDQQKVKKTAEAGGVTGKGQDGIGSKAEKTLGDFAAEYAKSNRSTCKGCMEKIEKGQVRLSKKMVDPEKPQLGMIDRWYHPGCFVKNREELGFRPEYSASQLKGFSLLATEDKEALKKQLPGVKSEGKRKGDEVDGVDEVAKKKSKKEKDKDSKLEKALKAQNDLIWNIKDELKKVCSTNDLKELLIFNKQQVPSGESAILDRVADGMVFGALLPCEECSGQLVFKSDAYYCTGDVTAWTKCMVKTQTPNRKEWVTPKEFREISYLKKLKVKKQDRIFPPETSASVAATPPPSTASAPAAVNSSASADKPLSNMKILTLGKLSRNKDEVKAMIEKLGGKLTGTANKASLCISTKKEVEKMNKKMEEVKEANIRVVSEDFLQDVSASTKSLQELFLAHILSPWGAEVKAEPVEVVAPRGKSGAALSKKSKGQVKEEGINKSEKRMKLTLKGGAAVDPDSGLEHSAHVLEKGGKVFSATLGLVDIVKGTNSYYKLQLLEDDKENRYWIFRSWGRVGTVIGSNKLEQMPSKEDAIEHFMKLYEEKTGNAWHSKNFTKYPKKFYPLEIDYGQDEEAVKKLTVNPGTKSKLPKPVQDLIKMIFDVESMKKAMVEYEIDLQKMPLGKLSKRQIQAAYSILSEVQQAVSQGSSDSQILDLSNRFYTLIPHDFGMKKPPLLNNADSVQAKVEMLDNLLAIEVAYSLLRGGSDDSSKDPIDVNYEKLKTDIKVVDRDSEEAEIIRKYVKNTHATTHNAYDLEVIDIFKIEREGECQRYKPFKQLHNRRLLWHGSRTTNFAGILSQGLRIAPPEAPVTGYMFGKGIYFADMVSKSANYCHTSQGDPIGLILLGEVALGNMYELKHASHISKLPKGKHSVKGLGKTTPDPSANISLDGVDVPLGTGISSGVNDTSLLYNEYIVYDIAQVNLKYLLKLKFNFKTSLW
Procedure: FIG. 4B) Helical domain (pink cartoon) movement observed during the simulation, the red arrows indicate length and direction of movement. FIG. 4C) The residue-residue distance observed between the Ca atoms R878-D770 and Y889-V758, the increased distance sampling corresponds to the helical domain movement. FIG. 4D) PARP-1 WT, D770A, or R878A (40 nM) was incubated with a dumbbell DNA probe carrying an internal FAM group and a central nick at 20 nM with or without compound (25 μM) for 30 minutes. An unlabeled competitor was added and the decrease in fluorescence polarization was measured across time. FIG. 4E) The Kd of PARP-1 WT, D770A, or R878A for a DNA dumbbell probe containing a central nick (5 nM) was measured in a fluorescence polarization assay with and without inhibitor (5 μM). Error bars represent Standard Error of the Mean (SEM) (n=3).

[5] = tested on: Ser345 phosphorylation of Chk1 in HEK 293 cells; assay: western blot analysis of phosphorylation of Chk1; conditions: HEK 293 cells, 18 hours
R878A PARP-1 = R878A PARP-1 (Homo sapiens, UniProt P09874, R878A); assay: catalytic activity of PARP-1 mutant expressed in HEK 293 cells, R878A; type: biochemical; conditions: 3 μM AZ0108
Sequence of R878A PARP-1 (P09874 whole entry R878A): as the sequence (P09874 whole entry D770A, the tested form may be a part) above, with A770D, R878A counted along it

PARP-1 [6] = target: T1, PARP-1 (Homo sapiens, UniProt P09874); assay: in vitro fluorescence polarization DNA competition assay; conditions: 25 μM compound; PARP-1 40 nM; nicked dumbbell DNA probe 20 nM
T1 sequence (P09874 whole entry): as the sequence (P09874 whole entry D770A, the tested form may be a part) above, with A770D counted along it
Excerpt: (§2) The full-length WT PARP-1 protein used in these assays was purified as described previously (30).

PARP-1 [7] = target: T1, PARP-1; assay: fluorescence polarization DNA binding affinity assay; conditions: 5 μM inhibitor
Excerpt: as §2

HEK 293 PARP-1 KO cells = assay: cell proliferation (MTT) assay in PARP-1 KO cells; type: cell-based, human; conditions: PARP-1 KO vs control HEK 293 cells, MTT 72 h
Excerpt: as §1

[8] = tested on: caspase-3/7 activity in HEK 293 cells; assay: cell apoptosis assay (Caspase-Glo 3/7); type: cell-based, human; conditions: 1 μM, 72 hours
Procedure: HEK 293 or HEK 293 PARP-1 KO cells were seeded in a 96 well plate at 1000-2000 cells per well, a media only “blank” was also included. Following an overnight incubation, cells were treated with 1 μM of indicated inhibitors. “Blank” wells were treated with DMSO. Following a 72 hour inhibitor treatment, the Caspase-Glo 3/7 Assay was completed following the manufacturer instructions (Promega, #G8091). Luminescence was read on a SpectraMax i3 plate reader (Molecular Devices).
as §1

PARP-1 [9] = target: T1, PARP-1; assay: in vitro PARP-1 auto-PARylation assay (SRPK2 plate assay); type: biochemical; set-up: The full-length WT PARP-1 protein used in these assays; made in house; conditions: read-out: IC50 against PARP-1 catalytic activity (auto-PARylation)
Procedure: IC50 SRPK2 Plate Assays were performed as previously described (21). Log(inhibitor) versus response curves were fit using non-linear regression with variable slope. Mean IC50 values for each compound were derived from a minimum of three separate replicates.

(S)-4-(difluoro(3-(6-methyl-3-(trifluoromethyl)-5,6,7,8-tetrahydro-[1,2,4]triazolo[4,3-a]pyrazine-7-carbonyl)phenyl)methyl)phthalazin-1(2H)-one [AZ0108]
EC50 (HEK 293T cells [1]; MTT, 72 h, read-out: EC50 cell growth): 0.03 µM and 0.0297 µM | right-shift of the EC50 value for AZ0108 on cell growth (HEK 293T cells [1]; dual-treated with olaparib): 10 fold | double-strand breaks (DSBs) (HEK 293T cells [2]): only weakly generated DSBs | G1 (HEK 293T cells [3]; DAPI intensity, 18 hours): 9.31% | G2 (HEK 293T cells [3]; DAPI intensity, 18 hours): 9.65% | S (HEK 293T cells [3]; DAPI intensity, 18 hours): 77.4% | effect on cell cycle (HEK 293T cells [3]; FACS, DAPI fluorescence): arrested HEK 293 cells in S-phase | block of EdU incorporation (HEK 293T cells [4]): 65% | D770A PARP-1's affinity for DNA (D770A PARP-1; 5 μM inhibitor): nor did it change | exchange of the D770A PARP-1:labled DNA with unlabeled DNA (D770A PARP-1; 25 μM compound): did not impact | Ser345 phosphorylation of Chk1 [5]: induced Ser345 phosphorylation of Chk1 | inhibition of R878A PARP-1 activity (R878A PARP-1): inhibited | exchange of the PARP-1:labled DNA complex with an unlabeled DNA competitor (PARP-1 [6]): substantially reduced | increase of the affinity of PARP-1 for DNA (PARP-1 [7]; DNA dumbbell probe with central nick 5 nM): 4 fold | effect on the affinity of PARP-1 for nicked DNA (PARP-1 [7]; compared to DMSO control): more pronounced effect on DNA binding to PARP-1 | increase in the EC50 value on cell growth by KO of PARP-1 (HEK 293 PARP-1 KO cells): 43 fold | reduction of caspase-3/7 activity [8]: 75% | IC50 (PARP-1 [9]): 0.012 µM
